In patent publication US10294202B2, “Pyrrolidinones as herbicides” (FMC Corporation, priority 2013, dated 2019):

Assays:
johnsongrass = experiment: Test C pre-/postemergence herbicide test; type: in vivo, Sorghum halepense
Summary of the method: (§1)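 Compound solutions contained surfactant in a non-phytotoxic solvent. These were sprayed onto pots of loam/sand sown with seeds, and onto young plants (2 to 18 cm, 1- to 4-leaf) in sphagnum peat–vermiculite mix. Visual injury scores (0 none, 100 complete control) were recorded after 13 to 15 days.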

ragweed = experiment: Test C pre-/postemergence herbicide test; type: in vivo, Ambrosia elatior
Summary of the method: as §1

ryegrass, Italian = experiment: Test C pre-/postemergence herbicide test; type: in vivo, Lolium multiflorum
Summary of the method: as §1

wheat = experiment: Test A pre-/postemergence herbicide test; type: in vivo, Triticum aestivum; conditions: for Wheat plant response rating: Preemergence, visual rating on 0 to 100 scale (0 no effect, 100 complete control)
Summary of the method: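 Formulated compound (non-phytotoxic solvent, surfactant) sprayed pre- onto soil of seeded loam/sand pots or post- onto seedlings at 1–2 leaves; ~10 d greenhouse; 0–100 visual control rating versus untreated.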

oat, wild = experiment: Test C pre-/postemergence herbicide test; type: in vivo, Avena fatua
Source text: Seeds of plant species selected from blackgrass (Alopecurus myosuroides), ryegrass, Italian (Italian ryegrass, Lolium multiflorum), wheat (winter wheat, Triticum aestivum), galium (catchweed bedstraw, Galium aparine), corn (Zea mays), crabgrass, large (large crabgrass, Digitaria sanguinalis), foxtail, giant (giant foxtail, Setaria faberii), johnsongrass (Sorghum halepense), lambsquarters (Chenopodium album), morningglory (Ipomoea coccinea), nutsedge, yellow (yellow nutsedge, Cyperus esculentus), pigweed (Amaranthus retroflexus), ragweed (common ragweed, Ambrosia elatior), soybean (Glycine max), barnyardgrass (Echinochloa crus-galli), oilseed rape (Brassica napus), waterhemp (common waterhemp, Amaranthus rudis), kochia (Kochia scoparia), oat, wild (wild oat, Avena fatua), surinam grass (Brachiaria decumbens), foxtail, green (green foxtail, Setaria viridis), goosegrass (Eleusine indica), bromegrass, downy (downy bromegrass, Bromus tectorum), nightshade (eastern black nightshade, Solanum ptycanthum), cocklebur (common cocklebur, Xanthium strumarium), cupgrass, woolly (woolly cupgrass, Eriochloa villosa), bermudagrass (Cynodon dactylon), sunflower, (common oilseed sunflower, Helianthus annuus), Russian thistle (Salsola kali) and velvetleaf (Abutilon theophrasti) were planted into a blend of loam soil and sand and treated preemergence with test chemicals formulated in a non-phytotoxic solvent mixture which included a surfactant. At the same time, plants selected from these crop and weed species and also barley (winter barley, Hordeum vulgare), […]), chickweed (common chickweed, Stellaria media), deadnettle (henbit deadnettle, Lamium amplexicaule), and canarygrass (littleseed canarygrass, Phalaris minor) were planted in pots containing Redi-Earth® planting medium (Scotts Company, 14111 Scottslawn Road, Marysville, Ohio 43041) comprising spaghnum peat moss, vermiculite, wetting agent and starter nutrients and treated with postemergence applications of test chemicals formulated in the same manner. Plants ranged in height from 2 to 18 cm (1- to 4-leaf stage) for postemergence treatments. Treated plants and controls were maintained in a greenhouse for 13 to 15 days, after which time all species were compared to controls and visually evaluated. Plant response ratings, summarized in Table C, are based on a scale of 0 to 100 where 0 is no effect and 100 is complete control. A dash (-) response means no test result.

corn = experiment: Test C pre-/postemergence herbicide test; type: in vivo, Zea mays
Summary of the method: as §1

soybean = experiment: Test C pre-/postemergence herbicide test; type: in vivo, Glycine max
Summary of the method: as §1

blackgrass = experiment: Test C pre-/postemergence herbicide test; type: in vivo, Alopecurus myosuroides
Summary of the method: as §1

crabgrass, large = experiment: Test C pre-/postemergence herbicide test; type: in vivo, Digitaria sanguinalis
Summary of the method: as §1

galium = experiment: Test C pre-/postemergence herbicide test; type: in vivo, Galium aparine; conditions: Preemergence; for Galium plant response rating: 31 g ai/ha
Summary of the method: as §1

[1] = Postemergence, 31 g ai/ha, scale 0 (no effect) to 100 (complete control)
[2] = Postemergence, 62 g ai/ha, scale 0 to 100 (0 no effect, 100 complete control)
[3] = Postemergence, 125 g ai/ha, scale 0 to 100 (0 no effect, 100 complete control)
[4] = Postemergence, 250 g ai/ha, scale 0 to 100 (0 no effect, 100 complete control)
[5] = Preemergence, 62 g ai/ha, scale 0 to 100
[6] = Preemergence, 125 g ai/ha, scale 0 to 100 (0 no effect, 100 complete control)
[7] = Postemergence, 125 g ai/ha, 0 to 100 scale, 0 no effect, 100 complete control
[8] = Postemergence, 500 g ai/ha, 0 to 100 scale (0 no effect, 100 complete control)
[9] = preemergence, 500 g ai/ha, 0 to 100 scale
[10] = Preemergence, 31 g ai/ha, scale 0 to 100 (0 no effect, 100 complete control)
[11] = Preemergence, 250 g ai/ha, scale 0 to 100 (0 no effect, 100 complete control)
[12] = 125 g ai/ha, scale 0 to 100 (0 no effect, 100 complete control)
[13] = scale 0 to 100 (0 no effect, 100 complete control)

SMILES: O=C1NCC(c2ccc(Cl)c(F)c2)C1C(=O)Nc1cccc(F)c1F (stereo not shown) [Compound 52]
- Plant response rating, Johnsongrass (johnsongrass; [1]): 0
- Plant response rating, Johnsongrass (johnsongrass; [2]): 0
- Plant response rating, Johnsongrass (johnsongrass; [3]): 0
- Plant response rating, Johnsongrass (johnsongrass; [4]): 0
- Plant response rating, Johnsongrass (johnsongrass; [5]): 0
- Plant response rating, Johnsongrass (johnsongrass; [6]): 10
- Plant response rating, Ragweed (ragweed; [1]): 10
- Plant response rating, Ragweed (ragweed; [2]): 10
- Plant response rating, Ragweed (ragweed; [3]): 50
- Plant response rating, Ragweed (ragweed; [4]): 55
- Plant response rating, Ragweed (ragweed; [5]): 0
- Plant response rating, Ragweed (ragweed; [6]): 0
- Plant response rating, Ryegrass, Italian (ryegrass, Italian; [1]): 0
- Plant response rating, Ryegrass, Italian (ryegrass, Italian; [2]): 0
- Plant response rating, Ryegrass, Italian (ryegrass, Italian; [3]): 0
- Plant response rating, Ryegrass, Italian (ryegrass, Italian; [4]): 0
- Plant response rating, Ryegrass, Italian (ryegrass, Italian; [5]): 0
- Plant response rating, Ryegrass, Italian (ryegrass, Italian; [6]): 0
- Plant response rating, Wheat (wheat; [7]): 0
- Plant response rating, Wheat (wheat; [8]): 30
- Wheat plant response rating (wheat; 125 g ai/ha): 0
- Plant response rating, Wheat (wheat; [9]): 0
- Plant response rating, Oat, Wild (oat, wild; [1]): 0
- Plant response rating, Oat, Wild (oat, wild; [2]): 0
- Plant response rating, Oat, Wild (oat, wild; [3]): 0
- Plant response rating, Oat, Wild (oat, wild; [4]): 0
- Plant response rating, Oat, Wild (oat, wild; [5]): 0
- Plant response rating, Oat, Wild (oat, wild; [6]): 0
- Plant response rating, Corn (corn; [1]): 0
- Plant response rating, Corn (corn; [2]): 0
- Plant response rating, Corn (corn; [3]): 5
- Plant response rating, Corn (corn; [4]): 5
- Plant response rating, Corn (corn; [5]): 10
- Plant response rating, Corn (corn; [6]): 10
- Corn plant response rating (corn; [10]): 10
- Plant response rating, Corn (corn; [11]): 10
- Plant response rating, Soybean (soybean; [1]): 0
- Plant response rating, Soybean (soybean; [2]): 0
- Plant response rating, Soybean (soybean; [3]): 5
- Plant response rating, Soybean (soybean; [4]): 5
- Plant response rating, Soybean (soybean; [5]): 10
- Plant response rating, Soybean (soybean; [6]): 15
- Plant response rating, Blackgrass (blackgrass; [1]): 0
- Plant response rating, Blackgrass (blackgrass; [2]): 0
- Plant response rating, Blackgrass (blackgrass; [3]): 0
- Plant response rating, Blackgrass (blackgrass; [4]): 0
- Plant response rating, Blackgrass (blackgrass; [5]): 0
- Plant response rating, Blackgrass (blackgrass; [6]): 0
- Blackgrass plant response rating (blackgrass; [10]): 0
- Plant response rating, Blackgrass (blackgrass; [11]): 0
- Plant response rating, Crabgrass, Large (crabgrass, large; [1]): 50
- Plant response rating, Crabgrass, Large (crabgrass, large; [2]): 55
- Plant response rating, Crabgrass, Large (crabgrass, large; [3]): 55
- Plant response rating, Crabgrass, Large (crabgrass, large; [4]): 75
- Plant response rating, Crabgrass, Large (crabgrass, large; [5]): 90
- Plant response rating, Crabgrass, Large (crabgrass, large; [6]): 90
- Crabgrass, Large plant response rating (crabgrass, large; [10]): 80
- Plant response rating, Crabgrass, Large (crabgrass, large; [11]): 95
- Plant response rating, Galium (galium; 62 g ai/ha, scale 0 to 100): 0
- Plant response rating, Galium (galium; [12]): 90
- Galium plant response rating (galium; [13]): 0
- Plant response rating, Galium (galium; 250 g ai/ha, scale 0 to 100 (0 no effect, 100 complete control)): 90

SMILES: O=C1NCC(c2ccc(F)c(Cl)c2)C1C(=O)Nc1ccccc1F (stereo not shown) [Compound 60]
- Plant response rating, Johnsongrass (johnsongrass; [1]): 5
- Plant response rating, Johnsongrass (johnsongrass; [2]): 5
- Plant response rating, Johnsongrass (johnsongrass; [3]): 5
- Plant response rating, Johnsongrass (johnsongrass; [5]): 20
- Plant response rating, Johnsongrass (johnsongrass; [6]): 20
- Plant response rating, Ragweed (ragweed; [1]): 10
- Plant response rating, Ragweed (ragweed; [2]): 25
- Plant response rating, Ragweed (ragweed; [3]): 35
- Plant response rating, Ragweed (ragweed; [5]): 10
- Plant response rating, Ragweed (ragweed; [6]): 25
- Plant response rating, Ryegrass, Italian (ryegrass, Italian; [1]): 0
- Plant response rating, Ryegrass, Italian (ryegrass, Italian; [2]): 0
- Plant response rating, Ryegrass, Italian (ryegrass, Italian; [3]): 0
- Plant response rating, Ryegrass, Italian (ryegrass, Italian; [5]): 0
- Plant response rating, Ryegrass, Italian (ryegrass, Italian; [6]): 0
- Plant response rating, Wheat (wheat; [7]): 0
- Plant response rating, Wheat (wheat; [8]): 50
- Wheat plant response rating (wheat; 125 g ai/ha): 0
- Plant response rating, Wheat (wheat; [9]): 0
- Plant response rating, Oat, Wild (oat, wild; [1]): 0
- Plant response rating, Oat, Wild (oat, wild; [2]): 0
- Plant response rating, Oat, Wild (oat, wild; [3]): 0
- Plant response rating, Oat, Wild (oat, wild; [5]): 0
- Plant response rating, Oat, Wild (oat, wild; [6]): 5
- Plant response rating, Corn (corn; [1]): 0
- Plant response rating, Corn (corn; [2]): 0
- Plant response rating, Corn (corn; [3]): 0
- Plant response rating, Corn (corn; [5]): 10
- Plant response rating, Corn (corn; [6]): 20
- Corn plant response rating (corn; [10]): 0
- Plant response rating, Soybean (soybean; [1]): 0
- Plant response rating, Soybean (soybean; [2]): 0
- Plant response rating, Soybean (soybean; [3]): 5
- Plant response rating, Soybean (soybean; [5]): 25
- Plant response rating, Soybean (soybean; [6]): 25
- Plant response rating, Blackgrass (blackgrass; [1]): 0
- Plant response rating, Blackgrass (blackgrass; [2]): 0
- Plant response rating, Blackgrass (blackgrass; [3]): 0
- Plant response rating, Blackgrass (blackgrass; [5]): 10
- Plant response rating, Blackgrass (blackgrass; [6]): 40
- Blackgrass plant response rating (blackgrass; [10]): 0
- Plant response rating, Crabgrass, Large (crabgrass, large; [1]): 20
- Plant response rating, Crabgrass, Large (crabgrass, large; [2]): 50
- Plant response rating, Crabgrass, Large (crabgrass, large; [3]): 75
- Plant response rating, Crabgrass, Large (crabgrass, large; [5]): 95
- Plant response rating, Crabgrass, Large (crabgrass, large; [6]): 95
- Crabgrass, Large plant response rating (crabgrass, large; [10]): 85
- Plant response rating, Galium (galium; 62 g ai/ha, scale 0 to 100): 0
- Plant response rating, Galium (galium; [12]): 5
- Galium plant response rating (galium; [13]): 0
